# In EP4094762A1, “TREATMENT OF NEUROLOGICAL INDICATIONS” (UCL Business Ltd, priority 2021, dated 2022):
# Marks after values point to notes of the source that are not given here.
# Molecular target: T1, P2Y1 receptor (Homo sapiens, UniProt P47900)
# T1 construct: expressed in transfected cells
# Assay: Cell based HTRF assay measuring IP1 accumulation; antagonism of the P2Y1 agonist MRS2365
# Conditions: 5nM MRS2365; rounded to nearest whole number; read-out: IC50
# Procedure: IC50 values were determined using a cell based assay in stably transfected cells overexpressing the P2Y1 receptor. The assay system is a high throughput […] assay measuring accumulation of the intracellular messenger inositol monophosphate (IP1), generated intracellularly following activation of P2Y1.
# P2Y1 overexpressing cells were maintained in T175 flasks. The day before the assay, these cells were split and 20µl cell suspension transferred to each well of white 384-well assay plates at a cell density of 0.5x10^6 cells/mL. Plates were pulse centrifuged, then incubated overnight at 37°C / 5% CO2 prior to assay.
# On day of assay, medium was removed from cells and replaced with stimulation buffer. […] Positive control antagonist curves with standard compounds were included on each plate. Plates were incubated with antagonists for 1 hour prior to addition of 5nM of the agonist MRS2365, dispensed using a Bravo liquid handler. Following agonist addition, plates were incubated for 60 minutes prior to assay. Both incubations were carried out at 37°C / 5% CO2.
# For the assay, IP1 accumulation was quantified using the IPOne kit according to manufacturer's instructions. In short, a standard curve was prepared for IP1 quantification, and cells lysed using kit lysis buffer. Assay reagents were added to the lysates, and incubated for 1 hour at room temperature without spinning or shaking. Plates were analysed on a BMG Pherastar plate reader, and IP1 signal generated in cells interpolated from the standard curve.
# T1 sequence (P47900 whole entry): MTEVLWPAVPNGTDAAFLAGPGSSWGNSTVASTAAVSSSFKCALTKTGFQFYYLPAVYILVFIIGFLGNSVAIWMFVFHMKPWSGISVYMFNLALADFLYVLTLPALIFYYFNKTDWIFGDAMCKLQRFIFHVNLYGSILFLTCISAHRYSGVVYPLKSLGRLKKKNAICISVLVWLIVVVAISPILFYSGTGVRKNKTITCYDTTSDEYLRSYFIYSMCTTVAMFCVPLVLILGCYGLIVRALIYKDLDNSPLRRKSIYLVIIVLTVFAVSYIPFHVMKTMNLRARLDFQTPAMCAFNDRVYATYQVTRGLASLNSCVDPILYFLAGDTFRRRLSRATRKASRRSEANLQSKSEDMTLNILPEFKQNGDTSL
row,SMILES,IC50 [nM]
1,"CC1(C)CN(c2ccccc2NC(=O)Nc2ccc(OC(F)(F)F)cc2)c2c(O)ccc(-c3ccc(Cl)cc3)c21 [compound 1, reference compound]",33
2,"Cc1ccc(NC(=O)Nc2ccc(OC(F)(F)F)cc2)c(Oc2ccccc2C(C)(C)C)n1 [compound 3, 1-(2-(2-(tert-butyl)phenoxy)-6-methylpyridin-3-yl)-3-(4-(trifluoromethoxy)phenyl)urea, reference compound]",36

# Same assay, conditions: rounded to nearest whole number; read-out: IC50 IP1
row,SMILES,IC50 [nM]
1,"CC(C)(C)c1ccccc1Oc1ncccc1NC(=O)Nc1ccc(C(F)(F)F)s1 [S8, 1-(2-(2-(tert-butyl)phenoxy)pyridin-3-yl)-3-(5-(trifluoromethyl)thiophen-2-yl)urea]",121
2,"O=C(Nc1ccc(OC(F)(F)F)cc1)Nc1cccnc1Oc1ccccc1C1(C(F)(F)F)CC1 [S4, 1-(4-(trifluoromethoxy)phenyl)-3-(2-(2-(1-(trifluoromethyl)cyclopropyl)phenoxy)pyridin-3-yl)urea]",58
3,Cc1c(Oc2ncccc2NC(=O)Nc2ccc(OC(F)(F)F)cc2)cccc1N1CCCCC1 [S9],122
4,Cc1c(Oc2ncccc2NC(=O)Nc2ccc(OC(F)(F)F)cc2)cccc1N1CCCC1 [S35],655
5,CC(C)(C)c1ccccc1Oc1ncc(-c2ccc3c(c2)OCCN3)cc1NC(=O)Nc1ccc(OC(F)(F)F)cc1 [S26],493
6,O=C(Nc1ccc(OC(F)(F)F)cc1)Nc1cccnc1Oc1cc(O)ccc1Br [S50],1280
7,CC(C)c1ccc(C(F)F)cc1Oc1ncccc1NC(=O)Nc1ccc(OC(F)(F)F)cc1 [S15],179
8,CC(C)(C)c1ccccc1Oc1ncccc1NC(=O)Nc1ccc2c(c1)OC(F)(F)O2 [S6],76
9,O=C(Nc1ccc(OC(F)(F)F)cc1)Nc1cccnc1Oc1cccc(N2CCCCC2)c1 [S31],607
10,CC(C)(C)c1ccccc1Sc1ncccc1NC(=O)Nc1ccc(OC(F)(F)F)cc1 [S3],57
11,Cc1c(Oc2ncccc2NC(=O)Nc2ccc(OC(F)(F)F)cc2)cccc1-c1ccccc1 [S7],99
12,Cc1c(Oc2ncccc2NC(=O)Nc2ccc(OC(F)(F)F)cc2)cccc1N1CCC2(CC1)COC2 [S36],732
13,CC(C)(C)c1ccc(O)c(Oc2ncccc2NC(=O)Nc2ccc(OC(F)(F)F)cc2)c1 [S42],948
14,Cc1c(Oc2ncccc2NC(=O)Nc2ccc(OC(F)(F)F)cc2)cccc1-c1ccc(C#N)cc1 [S16],202
15,Cc1cnc(Oc2ccccc2C(C)(C)C)c(NC(=O)Nc2ccc(OC(F)(F)F)cc2)c1 [S13],151
16,O=C(Nc1ccc(OC(F)(F)F)cc1)Nc1cccnc1Oc1cccc(-c2ccccc2)c1 [S39],827
17,CC(C)(C)c1cccc(Oc2ncccc2NC(=O)Nc2ccc(OC(F)(F)F)cc2)c1 [S20],276
18,Cc1cccc(Oc2ncccc2NC(=O)Nc2ccc(OC(F)(F)F)cc2)c1Br [S24],398
19,CC(C)(C)c1ccccc1Oc1ncccc1NC(=O)NCCc1ccccc1 [S43],958
20,Cn1cc(-c2cnc(Oc3ccccc3C(C)(C)C)c(NC(=O)Nc3ccc(OC(F)(F)F)cc3)c2)cn1 [S48],1110
21,Cc1c(Oc2ncccc2NC(=O)Nc2ccc(OC(F)(F)F)cc2)cccc1N1CCOCC1 [S23],332
22,"CC(C)(C)c1ccccc1Oc1cccc(O)c1NC(=O)Nc1ccc(OC(F)(F)F)cc1 [S11, 1-(2-(2-(tert-butyl)phenoxy)-6-hydroxyphenyl)-3-(4-(trifluoromethoxy)phenyl)urea]",150
23,Cc1c(Oc2ncccc2NC(=O)Nc2ccc(OC(F)(F)F)cc2)cccc1N(C)C [S12],151
24,Cc1c(Oc2ncccc2NC(=O)Nc2ccc(OC(F)(F)F)cc2)cccc1-c1ccc2c(c1)OCCN2 [S49],1240
25,O=C(Nc1ccc(OC(F)(F)F)cc1F)Nc1cccnc1Oc1ccccc1S(F)(F)(F)(F)F [S14],173
26,Cc1ccnc(Oc2ccccc2C(C)(C)C)c1NC(=O)Nc1ccc(OC(F)(F)F)cc1 [S22],302

# Continued, values first:
row,IC50 [nM],SMILES
1,4390,Cc1ccccc1Oc1ncc(C(F)(F)F)cc1NC(=O)Nc1ccc(OC(F)(F)F)cc1 [S69]
2,1960,CC(C)(C)c1ccccc1Oc1ncc(-c2cccc(C#N)c2)cc1NC(=O)Nc1ccc(OC(F)(F)F)cc1 [S56]
3,2100,CC(C)(C)c1ccccc1Oc1ncc(-c2ccc(C#N)cc2)cc1NC(=O)Nc1ccc(OC(F)(F)F)cc1 [S58]
4,1770,CC(C)(C)c1ccccc1Oc1nnccc1NC(=O)Nc1ccc(OC(F)(F)F)cc1 [S53]
5,7940,O=C(Nc1ccc(F)cc1F)Nc1cccnc1Oc1ccc(C(F)(F)F)cc1 [S80]
6,8180,Cn1cc(-c2cccc(Oc3ncccc3NC(=O)Nc3ccc(OC(F)(F)F)cc3)c2)cn1 [S82]
7,2460,Cc1c(Oc2ncccc2NC(=O)Nc2ccc(OC(F)(F)F)cc2)cccc1-c1cnn(C)c1 [S61]
8,3590,C#Cc1cnc(Oc2ccccc2C)c(NC(=O)Nc2ccc(OC(F)(F)F)cc2)c1 [S68]
9,1410,O=C(Nc1ccc(OC(F)(F)F)cc1)Nc1cccnc1Oc1cccc(O)c1 [S52]
10,1320,O=C(Nc1ccc(OC(F)(F)F)cc1)Nc1cccnc1Oc1cccc(Br)c1 [S51]
11,7160,COc1ccc(Br)c(Oc2ncccc2NC(=O)Nc2ccc(OC(F)(F)F)cc2)c1 [S78]
12,8730,O=C(Nc1ccc(OC(F)(F)F)cc1)Nc1cccnc1Oc1cccc(N2CCOCC2)c1 [S83]
13,2470,COc1ccc([C@H](C)NC(=O)Nc2cccnc2Oc2ccccc2C(C)(C)C)cc1 [S62]
14,4590,Cc1ccccc1COc1ncccc1NC(=O)Nc1ccc(OC(F)(F)F)cc1 [S70]
15,2810,Cc1cnc(Oc2cccc(N3CCCCC3)c2C)c(NC(=O)Nc2ccc(OC(F)(F)F)cc2)c1 [S64]

# Tested on: not listed separately
# Assay: CNS penetration: intravenous cassette pharmacokinetic study, brain and plasma by LC-MS/MS
# Conditions: C57B16/J, mouse, in vivo, 0.4 mg/kg
# Procedure: To assess penetration of compounds into the mouse central nervous system, intravenous pharmacokinetic studies were undertaken in C57B16/J mice. […] Compounds were then combined into a single dosing solution and administered together via the intravenous route into 24 mice. Total compound dose administered to each mouse was 2mg/kg. Mice were culled at various times post dosing and brain and plasma collected for bioanalysis. In particular, mice were culled and plasma collected for bioanalysis at 8 time points out to 24 hours post dosing. Brains were also collected for bioanalysis at various time points to assess CNS penetration. 2 hour and 4 hour brain collection was carried out in all studies. Additional time points were collected in selected studies.
# For bioanalysis, compounds were prepared in DMSO and aliquoted together to ensure a final concentration of 1mg/mL per compound in DMSO. Analytical standards were prepared from the initial 1mg/mL stock solution of compound, with a 12-point standard curve range from 0.5ng/mL to 2000ng/mL, with independent quality control tests from 1ng/mL to 1000ng/mL run to validate the standards. All standards and QC samples were matrix matched to eliminate possible suppression. Plasma samples were prepared with a 1:10 dilution in plasma. […] Dose solutions were diluted in a control matrix to a relative concentration that fell on the standard curve. Cold acetonitrile containing internal standard was added to all samples, standards, dose samples and QC samples; samples were then centrifuged for 30 minutes at 4000rpm. After centrifugation, supernatant was transferred to a new 96-well plate, diluted with an equal volume of water and mixed thoroughly before LC-MS analysis.
# Supernatents were analysed by LC-MS/MS. From the analysis data a response ratio was obtained using the formula Response Ratio = Test Peak Area/Internal Standard Peak Area. From the standard curve, the test peak area was converted to concentration of test compound.
# To establish CNS penetration, the ratio of the concentration of each compound in the plasma samples to the brain samples was assessed.
row,SMILES,CNS penetrant (asterisk)
1,"CC(C)(C)c1ccccc1Oc1ncccc1NC(=O)Nc1ccc(OC(F)(F)F)cc1 [S1 (BPTU), 1-(2-(2-(tert-butyl)phenoxy)pyridin-3-yl)-3-(4-(trifluoromethoxy)phenyl)urea]",S1 (BPTU)*

# Same assay, conditions: mouse, in vivo
row,SMILES,CNS penetrant (asterisk)
1,"CC(C)(C)c1ccccc1Oc1ncccc1NC(=O)Nc1ccc(C(F)(F)F)s1 [S8, 1-(2-(2-(tert-butyl)phenoxy)pyridin-3-yl)-3-(5-(trifluoromethyl)thiophen-2-yl)urea]",S8*
2,"O=C(Nc1ccc(OC(F)(F)F)cc1)Nc1cccnc1Oc1ccccc1C1(C(F)(F)F)CC1 [S4, 1-(4-(trifluoromethoxy)phenyl)-3-(2-(2-(1-(trifluoromethyl)cyclopropyl)phenoxy)pyridin-3-yl)urea]",S4*
3,Cc1c(Oc2ncccc2NC(=O)Nc2ccc(OC(F)(F)F)cc2)cccc1N1CCCCC1 [S9],S9*
4,"CC(C)(C)c1ccccc1Oc1cccc(O)c1NC(=O)Nc1ccc(OC(F)(F)F)cc1 [S11, 1-(2-(2-(tert-butyl)phenoxy)-6-hydroxyphenyl)-3-(4-(trifluoromethoxy)phenyl)urea]",S11*

# Same assay, conditions: mouse, intravenous
row,SMILES,CNS penetration (in words)
1,"CC1(C)CN(c2ccccc2NC(=O)Nc2ccc(OC(F)(F)F)cc2)c2c(O)ccc(-c3ccc(Cl)cc3)c21 [RS1, 1-(2-(4-(4-chlorophenyl)-7-hydroxy-3,3-dimethylindolin-1-yl)phenyl)-3-(4-(trifluoromethoxy)phenyl)urea, reference compound]",no apparent CNS penetration
2,"Cc1ccc(NC(=O)Nc2ccc(OC(F)(F)F)cc2)c(Oc2ccccc2C(C)(C)C)n1 [RS2, 1-(2-(2-(tert-butyl)phenoxy)-6-methylpyridin-3-yl)-3-(4-(trifluoromethoxy)phenyl)urea, reference compound]",no apparent CNS penetration

# Same assay, conditions: mouse, t = 2 hr, 0.4mg/kg intravenous
row,SMILES,CNS penetration: total brain to plasma ratio
1,"CC1(C)CN(c2ccccc2NC(=O)Nc2ccc(OC(F)(F)F)cc2)c2c(O)ccc(-c3ccc(Cl)cc3)c21 [compound 1, reference compound]",BLLQ^d
2,"Cc1ccc(NC(=O)Nc2ccc(OC(F)(F)F)cc2)c(Oc2ccccc2C(C)(C)C)n1 [compound 3, 1-(2-(2-(tert-butyl)phenoxy)-6-methylpyridin-3-yl)-3-(4-(trifluoromethoxy)phenyl)urea, reference compound]",BLLQ^d
